# Data reported in patent publication US12171801B2, “Compositions and related methods for controlling vector-borne diseases” (priority 2017, dated 2024).
# Entries after “also recorded” stand apart in the source; their conditions may differ.
# Key:
# [1] = test system: Buchnera; assay: Buchnera/aphid DNA copy number by qPCR; assay type: in vivo, Acyrthosiphon pisum
# [2] = test system: Acyrthosiphon pisum aphids; assay: Aphid fecundity; assay type: in vivo; conditions: 10 or 100 uM
# Procedure: (§1) In addition, the developmental stage (1st, 2nd, 3rd, 4th, 5th instar) was determined daily throughout the experiment. Once an aphid reached the 4th instar stage, they were given their own artificial feeding system in a deep petri dish so that fecundity could be monitored once they reached adulthood.
# (§2) For adult aphids, new nymphs were counted daily and then discarded. At the end of the experiments, fecundity was determined as the mean number of offspring produced daily once the aphid reached adulthood. Pictures of aphids were taken throughout the experiment to evaluate size differences between treatment groups.
# as §1, with “5th, and 5 R (5th that has reproduced)” for “5th”
# (§3) For adult aphids, new nymphs were counted daily and then discarded. At the end of the experiments, fecundity was measured in two ways: 1) the mean day at which the first offspring for the treatment group was determined and 2) the mean number of offspring produced daily once the aphid reached adulthood. […]
# In addition, the developmental stage (1st, 2nd, 3rd, 4th, 5th instar) was determined daily throughout the experiment. […]
# [3] = test system: Acyrthosiphon pisum aphids; assay: Aphid survival monitoring; assay type: in vivo
# [4] = test system: Acyrthosiphon pisum aphids; assay: Aphid size (body area) from images; assay type: in vivo; conditions: 10 or 100 uM in artificial diet, 3 days post-treatment
# Procedure: as §2
# Each treatment group received approximately the same number of individuals from each of the collection plant. For each treatment, 20 aphids were placed onto each leaf. Aphids were monitored daily for survival and dead aphids were removed when they were discovered. In addition, the developmental stage (1st, 2nd, 3rd, 4th, 5th instar, and 5 R, representing a reproducing 5th instar) was determined daily throughout the experiment. […]
# as §3
# Aphids LSR-1 (which harbor only Buchnera), Acyrthosiphon pisum were grown on fava bean plants (Vroma vicia faba from Johnny's Selected Seeds) in a climate-controlled incubator (16 h light/8 h dark photoperiod; 60±5% RH; 25±2° C.). […] Aphids were monitored daily for survival and dead aphids were removed from the deep petri dish when they were discovered. […]
# [5] = test system: Acyrthosiphon pisum aphids; assay: Aphid developmental stage monitoring; assay type: in vivo; conditions: for aphids that did not mature further than the 4rd instar stage: 11 days post-treatment
# Procedure: as §1
# Each treatment group received approximately the same number of individuals from each of the collection plant. For each treatment, 20 aphids were placed onto each leaf. Aphids were monitored daily for survival and dead aphids were removed when they were discovered. In addition, the developmental stage (1st, 2nd, 3rd, 4th, 5th instar, and 5 R, representing a reproducing 5th instar) was determined daily throughout the experiment. Pictures of aphids were taken throughout the experiment to evaluate size differences between treatment groups.
# Aphids LSR-1 (which harbor only Buchnera), Acyrthosiphon pisum were grown on fava bean plants (Vroma vicia faba from Johnny's Selected Seeds) in a climate-controlled incubator (16 h light/8 h dark photoperiod; 60±5% RH; 25±2° C.). Prior to being used for aphid rearing, fava bean plants were grown in potting soil at 24° C. with 16 h of light and 8 h of darkness. To limit maternal effects or health differences between plants, 5-10 adults from different plants were distributed among 10 two-week-old plants, and allowed to multiply to high density for 5-7 days. For experiments, first and second instar aphids were collected from healthy plants and divided into 2 different treatment groups: 1) negative control (leaf injected with water plus blue food coloring) and 2) leaf injected with 50 μg/ml rifampicin in water plus blue food coloring. Each treatment group received approximately the same number of individuals from each of the collection plants. For treatment, rifampicin stock solution (25 mg/ml in 100% methanol) was diluted to 50 μg/ml in water plus blue food coloring. The solution was then placed into a 1.5 ml Eppendorf tube with a fava bean stem perfused with the solutions and the opening of the tube was closed using parafilm. This feeding system was then placed into a deep petri dish (Fisher Scientific, Cat #FB0875711) and aphids were applied to the leaves of the plant. For each treatment, 74-81 aphids were placed onto each leaf. The feeding systems were changed every 2-3 days throughout the experiment. Aphids were monitored daily for survival and dead aphids were removed from the deep petri dish when they were discovered. In addition, the developmental stage (1st, 2nd, 3rd, 4th, 5th and 5 R (5th that has reproduced) instar) was determined daily throughout the experiment.
# In addition, the developmental stage (1st 2nd, 3rd, 4th, 5th and 5 R (5th that has reproduced) instar) was determined daily throughout the experiment.
# (§4) In addition, the developmental stage (1st, 2nd, 3rd, 4th, 5th, and 5 R (5th that has reproduced) instar) was determined daily throughout the experiment.
# In addition, the developmental stage (1st, 2nd, 3rd, 4th, 5th and 5 R (5th that has reproduced) instar) was determined daily throughout the experiment.
# In addition, the developmental stage (1st, 2nd, 3rd, 4th, 5th, and 5 R (5th instar aphids that are reproducing) instar) was determined daily throughout the experiment.
# In addition, the developmental stage (1st, 2nd, 3rd 4th and 5th instar) was determined daily throughout the experiment.
# as §1, with “5th, and 5 R (5th that has reproduced)” for “5th”
# as §4
# [6] = test system: Asaia; assay: Asaia quantification by qPCR in midguts of azithromycin blood-fed mosquitoes; assay type: in vivo, Anopheles coluzzii; conditions: azithromycin 0.1, 1 or 5 μg/ml in blood meals; midgut
# Procedure: Therapeutic design: Blood meals mixed with azithromycin solutions are formulated with final antibiotic concentrations of 0 (negative control), 0.1, 1, or 5 μg/ml in 1 mL of blood.
# Azithromycin solutions are made by dissolving azithromycin (SIGMA-ALDRICH, PZ0007) in DMSO. Different volumes of azithromycin solution are added to fresh blood to total 1 mL in preparation for blood meals. The final azithromycin concentrations in the blood are 0 (just solvent as control solution), 0.1, 1, or 5 μg/ml.
# For each Plasmodium infection, at least 100 age-matched, 2- to 3-day-old, mosquitoes per condition are offered a control or experimental blood meal from a membrane-feeding device (2 ml Eppendorf tube) covered with parafilm and kept at 37° C. and nonengorged mosquitoes are removed. Meals are given every four days for a total of three blood meals. […] Deaths are counted daily and carcasses are removed and stored for Asaia analysis as described herein. […]
# Before dissection, mosquitoes are immersed in 70% ethanol for 5 minutes then rinsed 3 times in sterile phosphate-buffered saline (PBS) to kill and remove surface bacteria, thus minimizing sample contamination with cuticle bacteria during dissection. […] The 16S ribosomal DNA (rDNA) is used for Asaia quantification and is shown as a ratio of the Anopheles housekeeping gene 40S ribosomal protein S7 (Vector-Base gene ID AGAP010592). […]
# [7] = test system: Anopheles coluzzii mosquitoes; assay: Survival of mosquitoes given azithromycin blood meals; assay type: in vivo; conditions: azithromycin 0.1, 1 or 5 μg/ml in blood meals
# Procedure: For each Plasmodium infection, at least 100 age-matched, 2- to 3-day-old, mosquitoes per condition are offered a control or experimental blood meal from a membrane-feeding device (2 ml Eppendorf tube) covered with parafilm and kept at 37° C. and nonengorged mosquitoes are removed. Meals are given every four days for a total of three blood meals. Between the blood meals, mosquitoes are provided with a cotton pad moistened with distilled water for oviposition. Unfed mosquitoes are not removed after the second and later blood meals. Deaths are counted daily and carcasses are removed and stored for Asaia analysis as described herein. At least 50 mosquitoes per concentration of azithromycin are used for each replicate. At the end of the last blood meal, mosquitoes are kept for 12 hours before dissection.
# The survival rates of mosquitoes treated with azithromycin are compared to the mosquitoes treated with the negative control.
# [8] = test system: gram-negative and gram-positive bacteria as well as fungi; conditions: cited from earlier work
# [9] = leaf coating, 10 uM in 0.025% Silwet L-77
molecule,measurement,setting,value
CC(C)(CO)[C@@H](O)C(=O)NCCCO [pantothenol],Buchnera/aphid DNA copies,"[1]; 10 or 100 uM, 8 days",does not affect Buchnera/aphid DNA copy number directly
same,Buchnera/aphid DNA copies,"[1]; 10 or 100 uM, 8 days, listed as Pantothenol",did not affect endosymbiotic Buchnera
same,aphid reproduction,[2],loss of aphid reproduction
same,aphid reproduction,[2]; listed as Pantothenol,loss of reproduction
same,aphid survival,"[3]; 10 or 100 uM in artificial diet, through plants",increased aphid mortality; also recorded: negatively affected aphid fitness
same,aphid survival,[3]; [9],lower survival rates
same,aphid survival,"[3]; leaf coating, 10 uM in 0.025% Silwet L-77, listed as Pantothenol",aphid death
same,aphid size (area),[4],drastic effect; also recorded: smaller in area than untreated controls
same,aphid development,"[5]; 10 or 100 uM in artificial diet without essential amino acids, through plants, eNASCO",delayed aphid development
same,aphid development,[5]; [9],did not affect aphid development
CC[C@H]1OC(=O)[C@H](C)[C@@H](O[C@H]2C[C@@](C)(OC)[C@@H](O)[C@H](C)O2)[C@H](C)[C@@H](O[C@@H]2O[C@H](C)C[C@H](N(C)C)[C@H]2O)[C@](C)(O)C[C@@H](C)CN(C)[C@H](C)[C@@H](O)[C@]1(C)O [azithromycin],"Asaia specific genes (16S rDNA qPCR, ratio to S7)",[6],reduction of Asaia specific genes
same,survival rate of mosquitoes,[7],decreased compared to the control
O=C/C=C/c1ccccc1 [trans-cinnemaldehyde],Buchnera/aphid DNA copies,"[1]; lowest concentration (0.5%), 3 days",high ratios of Buchnera/aphid DNA copies
same,aphid survival,"[3]; 0.05%, 0.5%, and 5%",dose-dependent decrease in survival; also recorded: significantly lower
same,aphid development,"[5]; 0.05%, 0.5% and 5% in water, leaf perfusion and through plants, 3 days",delayed
same,aphid development,"[5]; 0.05%, 0.5% and 5% in water, leaf perfusion and through plants, 3 days, listed as Trans-cinnemaldehyde",delayed aphid development
same,aphid development (stage reached),[5]; 5%,remained at the 1st instar stage throughout the course of the experiment
CC(=O)CCC(=O)O [levulinic acid],aphid survival,"[3]; 0.03%, 11-day experiment",higher mortality compared to control treated aphids
same,aphid survival,[3]; 0.03 or 0.3%,dose-dependent decrease in survival; also recorded: decrease in insect survival
same,aphid survival,"[3]; 0.3%, 11-day experiment",significantly less
same,aphids that did not mature further than the 4rd instar stage,[5]; 0.03%,~23%
same,aphid development,"[5]; 0.03 or 0.3% in water, leaf injection and through plant, eNASCO",delayed aphid development
same,aphids that did not mature further than the 4rd instar stage,[5]; 0.3%,~63%
"Cc1cc2c(C(C)C)c(O)c(O)c(C=O)c2c(O)c1-c1c(C)cc2c(C(C)C)c(O)c(O)c(C=O)c2c1O [gossypol, gossypol acetic acid]",time after which aphids began dying,"[3]; 0.5%, through plants",2 days
same,time by which all aphids succumbed to treatment,"[3]; 0.5%, through plants",≤ 4 days
"NCR335: NCR peptide, SEQ ID NO: 197 (peptide) MKMRIHMAQIIMFFYALIIFLSPFLVDRRSFPSSFVSPKSYTSEIPCKATRDCPYELYYETKCVDSLCTY",antimicrobial activity,[8],effective against gram-negative and gram-positive bacteria as well as fungi
